Results on 5 molecules are retold here after patent publication US20220243249A1, “ANTAGONISTS OF CAMKII-DELTA 9 AND USES THEREOF” (PEKING UNIVERSITY, priority 2019, published 2022).

In one data set the test system is CaMKII-δ9. Briefly: CaMKII-δ9 protein level, phosphorylation and oxidation in NRVMs under stress. Type of data set: cell-based, rat. The conditions noted are these: for expression of CaMKII-δ9 (protein): Dox 1 μM or H2O2 200 μM, 24 h. On the procedure:
NRVMs were isolated from 1-day-old Sprague-Dawley rats, and adenovirus-mediated gene transfer was implemented using methods described previously (Zhang, T. et al., Nature medicine 22, 175-182, doi: 10.1038/nm.4017 (2016)). […]
(§1) Western blot and co-immunoprecipitation were performed as previously described (Zhang, T. et al., Nature medicine 22, 175-182, doi:10.1038/nm.4017 (2016)).

In data set [1] the test system is UBE2T. Briefly: UBE2T protein level by western blot in NRVMs. Type of data set: cell-based, rat. Conditions: for CaMKII-δ9-induced reduction of the UBE2T protein level: β-lac 5 μM, MG132 10 μM. As for the experimental part: NRVMs were isolated from 1-day-old Sprague-Dawley rats, and adenovirus-mediated gene transfer was implemented using methods described previously (Zhang, T. et al., Nature medicine 22, 175-182, doi: 10.1038/nm.4017 (2016)). NRVMs were exposed to H2O2 (200 μM) or Dox (1 μM) for 24 h.
as §1
On the technique in general: A western blot detects proteins with antibodies after separation by electrophoresis.

A further data set relates to NRVMs. Briefly: DNA damage by γH2AX and comet assay in NRVMs. Type of data set: cell-based, rat. The conditions noted are these: β-lac 5 μM, MG132 10 μM. As for the experimental part: Cultured neonatal rat ventricular cardiomyocytes (NRVMs) were treated as indicated, and then washed with cold PBS, following the protocol of the comet assay kit (Trevigen, Cat #: 4250-050-K) under alkaline conditions. Mean tail moments were quantified for 300-500 cells per sample in each experiment, with Comet Assay Software Project (v1.2.3b1).
(§2) Cardiomyocyte immunofluorescence was measured as previously described (Erickson, J. R. et al., Physiological reviews 91, 889-915, doi:10.1152/physrev.00018.2010 (2011)).

The test system of data set [2] is UBE2T. The data set can be described thus: Immunostaining of myc-tagged UBE2T location in NRVMs. Type of data set: cell-based, rat. Set-up: dose or concentration left out as unconfirmed. As for the experimental part: as §2
The subject of the next data set is exon 16 of CaMKII-δ. The data set can be described thus: Transverse aortic constriction (TAC) in CaMKII-δ9 shRNA transgenic mice. The class given is in vivo, mouse. On the procedure:
Transverse aortic constriction (TAC) was performed in 6-week-old male mice. Mice were anesthetized under 3% isoflurane via intubation, the chest was opened, the aortic arch was visualized, and a 7-0 silk suture was passed under the arch between the innominate and left common carotid arteries. The suture was secured around both the aorta and a 28-gauge needle, the needle was removed, the chest was closed, and the mouse was extubated. Sham-operated mice underwent an identical procedure except for the aortic ligation. Mice were given buprenorphine via intraperitoneal injection during recovery.
The sequence of miR30-based CaMKII-δ9 shRNA was 5′-[…] […]-3′ (SEQ ID NO: 37). The shRNA with an N-terminal EGFP tag and C-terminal BGH poly A sequences was cloned into the pLKO.1 plasmid containing the U6 promoter. After linearization, gel-purification was performed. This construct was microinjected into the pronuclei of fertilized C57BL/6J mouse eggs. PCR was used for genotyping. The primer sequences were 5′-[…]-3′ (forward) (SEQ ID NO: 38) and 5′-[…]-3′ (reverse) (SEQ ID NO: 39).
Echocardiographic analysis using a Vevo2100 digital imaging system (Visual Sonics, Toronto, ON, Canada) was performed under 1% isoflurane at 6 and 10 weeks of age, with mid-ventricular M and B mode measurements acquired in the parasternal short-axis view at the level of the papillary muscles. Once the mice were acclimated to the procedures, images were stored in digital format on a magnetic optical disk for review and analysis. Measurements of the LV internal end-diastolic diameter (LVIDd) were made at the time of apparent maximal LV diastolic dimension, while measurements of the LV internal end-systolic diameter (LVIDs) were taken at the time of the most anterior systolic excursion of the posterior wall. LV ejection fraction (EF) was calculated by the cubic method: LVEF (%)={(LVIDd)^3−(LVIDs)^3}/(LVIDd)^3×100, and LV fractional shortening (FS) was calculated by FS (%)=(LVIDd−LVIDs)/LVIDd×100. The data were averaged from 5 cardiac cycles.
Histological analysis of heart tissue was as previously described (Zhang, T. et al. Nature medicine 22, 175-182, doi: 10.1038/nm.4017 (2016)). The CardioTACS™ in situ apoptosis detection kit (Roche Applied Science, Cat #: 11684795910) was used for TUNEL staining as previously described (Zhang, T. et al. Nature medicine 22, 175-182, doi:10.1038/nm.4017 (2016)).

Peptide text beside a SMILES is read from it. * marks the point of attachment. Cbz = O=C(OCc1ccccc1)*

For `COc1cccc2c1C(=O)c1c(O)c3c(c(O)c1C2=O)C[C@@](O)(C(=O)CO)C[C@@H]3O[C@H]1C[C@H](N)[C@H](O)[C@H](C)O1` [Doxorubicin], the “expression of CaMKII-δ9 (protein)” value in the data set with CaMKII-δ9 is on record as “significantly elevated”. Moreover, in the data set with CaMKII-δ9 (Dox 1 μM, 30 and 60 min), the “oxidation level of CaMKII-δ9” value was “increased” and the “phosphorylation level of CaMKII-δ9” value is listed as “increased”.

For `OO` [H2O2], the “expression of CaMKII-δ9 (protein)” value in the data set with CaMKII-δ9 is given as “significantly elevated”. In the data set with UBE2T [1] (NRVMs, western blot), the UBE2T protein level entry was “decreased”.

Take `CC(C)C[C@@H](C=O)NC(=O)[C@H](CC(C)C)NC(=O)[C@H](CC(C)C)NC(=O)OCc1ccccc1` [MG132] (Cbz-Leu-Leu-Leu-aldehyde): the “CaMKII-δ9-mediated γH2AX upregulation” value with NRVMs is recorded as “block”. In the data set with UBE2T [1], the “CaMKII-δ9-induced reduction of the UBE2T protein level” value is listed as “fully abolished”. Further, the “subcellular location of UBE2T” value with UBE2T [2] is “present in both the nuclear and cytosolic compartments”.

Regarding `CC(C)[C@H](O)[C@@]12NC(=O)[C@H](C)[C@@H]1OC2=O` [β-lac, clasto-lactacystin β-lactone], the “CaMKII-δ9-mediated γH2AX upregulation” value with NRVMs is reported as “block”. Further, in the data set with UBE2T [1], the “CaMKII-δ9-induced reduction of the UBE2T protein level” value is on record as “fully abolished”.

B1: CaMKII-δ9 shRNA: miR30-based CaMKII-δ9 shRNA (SEQ ID NO: 37) targeting exon 16, expressed transgenically in mice (nucleic acid)
DNA: GAAGGTATATTGCTGTTGACAGTGAGCGCAATCCACAACCCTGACGGAAATAGTGAAGCCACAGATGTATTTCCGTCAGGGTTGTGGATTATGCCTACTGCCTCGG
B1: in the data set on exon 16 of CaMKII-δ (4 weeks after TAC surgery), the “TAC-induced cardiac DNA damage (γH2AX)” value is “reduced”; the TAC-induced cardiac hypertrophy result is “markedly attenuated”; the “TAC-induced cardiomyocyte death (TUNEL)” value is “reduced”; the “TAC-induced contractile dysfunction (EF, FS)” value is “markedly attenuated”. Also, the “cardiac UBE2T protein abundance” value in the data set on exon 16 of CaMKII-δ (4 weeks after TAC surgery) is “augmented”. Further, in the data set with exon 16 of CaMKII-δ (Kaplan-Meier survival), the TAC-induced premature death entry is on record as “markedly attenuated”.
